The compounds below were run against GCN2 kinase (Homo sapiens, UniProt Q9P2K8) (assay: GCN2 enzyme inhibition assay (Transcreener ADP2 fluorescence polarization)). Conditions: Enzyme activity for compounds of Formula IV; Ki(app), 280 μM ATP, 25° C.
Format: biochemical
Protocol: Compounds were screened for their ability to inhibit GCN2 kinase activity using a Transcreener® ADP^2 fluorescence polarization assay that detects ADP levels (BellBrook Labs, WI). Assays were carried out in a buffer consisting of 25 mM Tris-HCl (pH 7.5), 50 mM NaCl, 10 mM MgCl2 and 1 mM DTT. Final substrate concentrations were 280 μM ATP and 200 μM peptidic substrate ([…]-OH [(RS)7], Bachem, Switzerland). Assays were carried out at 25° C. in the presence of a (typical) final concentration of 4 nM GCN2 kinase. An assay buffer containing GCN2 kinase and (RS)7 was prepared. 4.7 μL of this stock solution was placed per well of a black, low volume, 384-well microtitre plate (e.g. catalogue number 3676, Corning Inc., NY). To this was added […] of DMSO containing serial dilutions of the test compound (typical final concentrations of test compound were 0 to 8 μM). The plate was incubated for 10 minutes at 25° C. prior to the addition of 4.7 μL of ATP stock buffer to initiate the enzyme reaction. The reaction was allowed to proceed for 1 hour at 25° C., prior to the addition of 10 μL detection buffer (consisting of appropriate concentrations of ADP^2 antibody and ADP Alexa633 tracer in 1× stop and detect buffer as supplied by BellBrook Labs). […] Percentage inhibition of enzyme activity was then calculated at each compound dose. IC50 and Ki(app) (using known assay and kinetic parameters) values were calculated from percentage inhibition data using a non-linear, tight-binding algorithm. All data analysis was undertaken using the Screener® software package (Genedata, Switzerland).

Chain of GCN2 kinase (Q9P2K8 whole entry): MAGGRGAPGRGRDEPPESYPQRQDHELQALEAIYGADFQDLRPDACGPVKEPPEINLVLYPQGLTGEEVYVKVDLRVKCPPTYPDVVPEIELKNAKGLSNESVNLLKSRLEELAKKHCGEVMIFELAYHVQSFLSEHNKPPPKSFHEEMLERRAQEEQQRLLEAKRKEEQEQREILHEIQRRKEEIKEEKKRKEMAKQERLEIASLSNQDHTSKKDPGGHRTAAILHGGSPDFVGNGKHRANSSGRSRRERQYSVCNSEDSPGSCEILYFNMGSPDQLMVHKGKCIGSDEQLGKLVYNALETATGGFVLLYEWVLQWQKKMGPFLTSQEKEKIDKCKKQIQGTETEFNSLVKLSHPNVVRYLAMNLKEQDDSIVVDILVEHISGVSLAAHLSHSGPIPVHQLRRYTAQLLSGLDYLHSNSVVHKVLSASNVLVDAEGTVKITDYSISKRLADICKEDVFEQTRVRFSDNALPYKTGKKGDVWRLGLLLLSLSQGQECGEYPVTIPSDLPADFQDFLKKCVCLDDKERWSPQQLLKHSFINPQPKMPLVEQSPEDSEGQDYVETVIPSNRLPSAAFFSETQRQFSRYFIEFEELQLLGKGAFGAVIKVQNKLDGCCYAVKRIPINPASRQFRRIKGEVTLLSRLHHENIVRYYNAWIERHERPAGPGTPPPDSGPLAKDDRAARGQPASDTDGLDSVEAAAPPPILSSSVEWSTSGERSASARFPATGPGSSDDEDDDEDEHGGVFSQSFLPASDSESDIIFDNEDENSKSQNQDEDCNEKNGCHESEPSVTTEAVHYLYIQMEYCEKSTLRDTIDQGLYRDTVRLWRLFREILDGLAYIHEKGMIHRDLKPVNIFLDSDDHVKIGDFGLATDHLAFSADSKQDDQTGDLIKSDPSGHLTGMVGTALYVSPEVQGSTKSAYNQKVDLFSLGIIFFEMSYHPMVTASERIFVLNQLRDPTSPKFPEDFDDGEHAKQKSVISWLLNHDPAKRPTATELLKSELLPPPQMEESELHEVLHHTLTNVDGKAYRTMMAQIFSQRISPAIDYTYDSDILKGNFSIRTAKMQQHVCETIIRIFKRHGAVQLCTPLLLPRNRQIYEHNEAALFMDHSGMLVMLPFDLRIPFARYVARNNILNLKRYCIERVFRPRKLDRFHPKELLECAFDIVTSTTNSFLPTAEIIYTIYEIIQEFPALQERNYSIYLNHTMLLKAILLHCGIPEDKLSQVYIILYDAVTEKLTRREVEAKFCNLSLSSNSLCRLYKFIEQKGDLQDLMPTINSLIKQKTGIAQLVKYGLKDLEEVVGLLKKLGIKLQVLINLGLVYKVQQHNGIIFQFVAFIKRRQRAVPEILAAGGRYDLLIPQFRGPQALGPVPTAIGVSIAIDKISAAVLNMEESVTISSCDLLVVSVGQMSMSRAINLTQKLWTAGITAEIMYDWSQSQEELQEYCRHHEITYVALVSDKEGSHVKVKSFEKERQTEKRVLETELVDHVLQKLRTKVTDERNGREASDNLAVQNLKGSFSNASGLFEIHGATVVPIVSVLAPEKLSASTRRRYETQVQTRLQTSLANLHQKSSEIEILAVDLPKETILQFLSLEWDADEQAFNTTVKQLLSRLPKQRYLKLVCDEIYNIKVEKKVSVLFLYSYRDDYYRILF

| Structure (SMILES) | Ki [nM] |
| --- | --- |
| CSCC1CCN(c2ccnc(-c3cnc4cnc(C(F)(F)F)cn34)n2)C1 (stereo not shown) [IV-594, 3-(4-(3-((Methylthio)methyl)pyrrolidin-1-yl)pyrimidin-2-yl)-6-(trifluoromethyl)imidazo[1,2-a]pyrazine] | 10 to 100 |
| Cc1[nH]ncc1C1NC(C)CN(c2ccnc(-c3cnc4cnc(Cl)cn34)n2)C1C (single isomer, unassigned) [IV-283, 6-Chloro-3-(4-(2,5-dimethyl-3-(5-methyl-1H-pyrazol-4-yl)piperazin-1-yl)pyrimidin-2-yl)imidazo[1,2-a]pyrazine] | 100 to 1000 |
| FC(F)(F)c1cn2c(-c3nccc(N4CCC5(CCOCC5)C4)n3)cnc2cn1 [IV-522, 2-(2-(6-(Trifluoromethyl)imidazo[1,2-a]pyrazin-3-yl)pyrimidin-4-yl)-8-oxa-2-azaspiro[4.5]decane] | 100 to 1000 |
| N#CCC1CCCN(c2ccnc(-c3cnc4cnc(C(F)(F)F)cn34)n2)C1 (stereo not shown) [IV-514, 2-(1-(2-(6-(Trifluoromethyl)imidazo[1,2-a]pyrazin-3-yl)pyrimidin-4-yl)piperidin-3-yl)acetonitrile] | 100 to 1000 |
| FC(F)(F)c1cn2c(-c3nccc(N4CCCC(C5CCOC5)C4)n3)cnc2cn1 (single isomer, unassigned) [IV-543, 3-(4-(3-(Tetrahydrofuran-3-yl)piperidin-1-yl)pyrimidin-2-yl)-6-(trifluoromethyl)imidazo[1,2-a]pyrazine] | 100 to 1000 |
| Cc1cc(N2CCN(C(N)=O)CC2)nc(-c2cnc3cnc(C(N)=O)cn23)n1 [IV-196, 3-(4-(4-Carbamoylpiperazin-1-yl)-6-methylpyrimidin-2-yl)imidazo[1,2-a]pyrazine-6-carboxamide] | 10 to 100 |
| O=C1CN(C2CCN(c3ccnc(-c4cnc5cnc(C(F)(F)F)cn45)n3)C2)CCN1 (stereo not shown) [IV-602, 4-(1-(2-(6-(Trifluoromethyl)imidazo[1,2-a]pyrazin-3-yl)pyrimidin-4-yl)pyrrolidin-3-yl)piperazin-2-one] | 100 to 1000 |
| FC(F)(F)c1cn2c(-c3nccc(N4CCc5sccc5C4)n3)cnc2cn1 [IV-749] | > 1000 |
| FC(F)c1cn2c(-c3nccc(-c4cnn(C5CCOC5)c4)n3)cnc2cn1 (stereo not shown) [IV-153, 6-(Difluoromethyl)-3-(4-(1-(tetrahydrofuran-3-yl)-1H-pyrazol-4-yl)pyrimidin-2-yl)imidazo[1,2-a]pyrazine] | 100 to 1000 |
| C[C@H]1[C@H](c2cn[nH]c2)OCCN1c1ccnc(-c2cnc3cnc(C#N)cn23)n1 (racemic) [IV-281, Trans-3-(4-(3-Methyl-2-(1H-pyrazol-4-yl)morpholino)pyrimidin-2-yl)imidazo[1,2-a]pyrazine-6-carbonitrile] | 10 to 100 |
| CC1CN(c2ccnc(-c3cnc4cnc(C(F)(F)F)cn34)n2)C(C)C(c2cnc[nH]2)N1 (single isomer, unassigned) [IV-549, 3-(4-(3-(1H-Imidazol-5-yl)-2,5-dimethylpiperazin-1-yl)pyrimidin-2-yl)-6-(trifluoromethyl)imidazo[1,2-a]pyrazine] | 100 to 1000 |
| FC(F)(F)c1cn2c(-c3nccc(N4CCC[C@@H](c5c[nH]cn5)C4)n3)cnc2cn1 [IV-706] | < 10 |
| CC1CCCCN1c1ccnc(-c2cnc3cnc(C(N)=O)cn23)n1 (stereo not shown) [IV-261, 3-(4-(2-Methylpiperidin-1-yl)pyrimidin-2-yl)imidazo[1,2-a]pyrazine-6-carboxamide] | 10 to 100 |
| CC1CCCCN1c1ccnc(-c2cnc3cnc(C(F)(F)F)cn23)n1 (stereo not shown) [IV-518, 3-(4-(2-Methylpiperidin-1-yl)pyrimidin-2-yl)-6-(trifluoromethyl)imidazo[1,2-a]pyrazine] | 10 to 100 |
| O=C1NCCC12CCN(c1ccnc(-c3cnc4cnc(C(F)(F)F)cn34)n1)C2 (stereo not shown) [IV-533, 7-(2-(6-(Trifluoromethyl)imidazo[1,2-a]pyrazin-3-yl)pyrimidin-4-yl)-2,7-diazaspiro[4.4]nonan-1-one] | 100 to 1000 |
| CCN1CCN(c2ccnc(-c3cnc4cnc(Br)cn34)n2)[C@@H](C)[C@H]1c1cn[nH]c1 (relative stereo) [IV-390, Cis-6-Bromo-3-(4-(4-ethyl-2-methyl-3-(1H-pyrazol-4-yl)piperazin-1-yl)pyrimidin-2-yl)imidazo[1,2-a]pyrazine] | < 10 |
| CC1NC(c2cn[nH]c2)C(C)N(c2ccnc(-c3cnc4cnc(C(F)(F)F)cn34)n2)C1C (single isomer, unassigned) [IV-337, 6-(Trifluoromethyl)-3-(4-(2,3,6-trimethyl-5-(1H-pyrazol-4-yl)piperazin-1-yl)pyrimidin-2-yl)imidazo[1,2-a]pyrazine] | < 10 |
| O=C(N[C@H]1CCCN(c2ccnc(-c3cnc4cnc(C(F)(F)F)cn34)n2)C1)c1ccoc1 [IV-748] | > 1000 |
| C[C@H]1CN(c2cccc(-c3cnc4cnc(C(F)F)cn34)n2)C[C@@H](CNS(C)(=O)=O)C1(F)F (single isomer, unassigned) [IV-275] | 100 to 1000 |
| O=C(Nc1cccnc1)[C@H]1CCCN(c2ccnc(-c3cnc4cnc(C(F)(F)F)cn34)n2)C1 [IV-723] | 100 to 1000 |
| CC1CC(C(N)=O)C(C)N(c2ccnc(-c3cnc4cnc(C(F)(F)F)cn34)n2)C1 (single isomer, unassigned) [IV-481, 2,5-Dimethyl-1-(2-(6-(trifluoromethyl)imidazo[1,2-a]pyrazin-3-yl)pyrimidin-4-yl)piperidine-3-carboxamide] | 10 to 100 |
| NC(=O)CN1CCCN(c2ccnc(-c3cnc4cnc(C(F)(F)F)cn34)n2)CC1 [IV-566, 2-(4-(2-(6-(Trifluoromethyl)imidazo[1,2-a]pyrazin-3-yl)pyrimidin-4-yl)-1,4-diazepan-1-yl)acetamide] | 100 to 1000 |
| O=C(Nc1cn[nH]c1)[C@H]1CCCN(c2ccnc(-c3cnc4cnc(C(F)(F)F)cn34)n2)C1 [IV-721] | 100 to 1000 |
| CC1CN(c2ccnc(-c3cnc4cnc(C(F)(F)F)cn34)n2)C(C)C(c2c[nH]c(C(F)(F)F)n2)N1 (single isomer, unassigned) [IV-674, 3-(4-(2,5-Dimethyl-3-(2-(trifluoromethyl)-1H-imidazol-4-yl)piperazin-1-yl)pyrimidin-2-yl)-6-(trifluoromethyl)imidazo[1,2-a]pyrazine] | 100 to 1000 |
| CS(=O)(=O)N1CCN(c2cccc(-c3ccnc(-c4cnc5cnc(C(F)F)cn45)n3)n2)CC1 [IV-151, 6-(Difluoromethyl)-3-(4-(6-(4-(methylsulfonyl)piperazin-1-yl)pyridin-2-yl)pyrimidin-2-yl)imidazo[1,2-a]pyrazine] | 100 to 1000 |

Same assay, conditions: compounds of Formula II; 280 μM ATP, 4 nM GCN2 kinase

| Structure (SMILES) | Ki [nM] |
| --- | --- |
| C[C@H]1CN(c2cc(-c3cnc4ccc(C(F)(F)F)nn34)ccn2)C[C@@H](c2nc(C3CC3)no2)O1 [II-743] | 10 to 1000 |
| CC1C(CCO)N(C)CCN1c1cc(-c2cnc3ccc(C(F)F)nn23)ncn1 (stereo not shown) [II-536, 2-(4-(6-(6-(Difluoromethyl)imidazo[1,2-b]pyridazin-3-yl)pyrimidin-4-yl)-1,3-dimethylpiperazin-2-yl)ethan-1-ol] | 10 to 1000 |
| CC1C(CNS(C)(=O)=O)C(F)(F)C(C)CN1c1cc(-c2cnc3ccc(C(F)F)nn23)ncn1 (single isomer, unassigned) [II-467, N-((1-(6-(6-(Difluoromethyl)imidazo[1,2-b]pyridazin-3-yl)pyrimidin-4-yl)-4,4-difluoro-2,5-dimethylpiperidin-3-yl)methyl)methanesulfonamide] | < 10 |
| CS(=O)(=O)NC1CN(c2cc(-c3cnc4ccc(C(F)F)nn34)ncn2)CCC1(F)F (stereo not shown) [II-589, N-(1-(6-(6-(Difluoromethyl)imidazo[1,2-b]pyridazin-3-yl)pyrimidin-4-yl)-4,4-difluoropiperidin-3-yl)methanesulfonamide] | 10 to 1000 |
| N#CCC1CN(c2cc(-c3cnc4ccc(C(F)F)nn34)ncn2)CCO1 (single isomer, unassigned) [II-564, 2-(4-(6-(6-(Difluoromethyl)imidazo[1,2-b]pyridazin-3-yl)pyrimidin-4-yl)morpholin-2-yl)acetonitrile] | 10 to 1000 |
| CCS(C)(=O)=NC1CC(C)CN(c2cc(-c3cnc4ccc(C(F)F)nn34)ncn2)C1 (single isomer, unassigned) [II-643, ((1-(6-(6-(Difluoromethyl)imidazo[1,2-b]pyridazin-3-yl)pyrimidin-4-yl)-5-methylpiperidin-3-yl)imino)(ethyl)(methyl)-λ^6-sulfanone] | < 10 |
| CC1CC(CS(C)(=O)=O)C(C)N(c2cc(-c3cnc4ccc(C(F)F)nn34)ncn2)C1 (single isomer, unassigned) [II-626, 6-(difluoromethyl)-3-[6-[2,5-dimethyl-3-(methylsulfonylmethyl)-1-piperidyl]pyrimidin-4-yl]imidazo[1,2-b]pyridazine] | < 10 |
| CCS(=O)(CC)=NC1CC(C)CN(c2cc(-c3cnc4ccc(C(F)F)nn34)ncn2)C1 (stereo not shown) [II-627, ((1-(6-(6-(Difluoromethyl)imidazo[1,2-b]pyridazin-3-yl)pyrimidin-4-yl)-5-methylpiperidin-3-yl)imino)diethyl-λ^6-sulfanone] | 10 to 1000 |
| C[C@H]1C[C@@H](CS(C)(=N)=O)[C@@H](C)N(c2cc(-c3cnc4ccc(C(F)F)nn34)ncn2)C1 (stereo partly drawn) [II-605, (((2R,3R,5S)-1-(6-(6-(Difluoromethyl)imidazo[1,2-b]pyridazin-3-yl)pyrimidin-4-yl)-2,5-dimethylpiperidin-3-yl)methyl)(imino)(methyl)-λ^6-sulfanone] | 10 to 1000 |
